According to PMC4258349 (International Journal of Medicinal Chemistry, 2014):
≈ marks a conversion by molar mass, not a printed value. Read-outs that look alike come from different tables or passages of the source.

How the values were obtained:
[1] = Relative thermal stability (spectrophotometric absorbance); assay type: physicochemical; conditions: 0.1 mg/mL solution, 24 hours, at λ-max
Method: (§1) The relative thermal and acid stabilities of the complexes were determined spectrometrically. Dilute solutions (0.1 mg/mL) were prepared, their absorption spectra were generated, and the λ-max in each case was noted. The solution of each complex was divided into seven equal portions and the temperature regulated to 20°C, 30°C, 40°C, 50°C, 60°C, 70°C, and 80°C, respectively, for a period of 24 hours. The absorbance in each case was then measured. Similarly, the same concentration of these solutions was prepared at the pH range of 1–6 and the absorbance was measured. These changes in absorbance with temperature and pH, assuming that Beer-Lambert's law is obeyed, are a measure of the stability of the complexes.

[2] = system: Staphylococcus aureus; test: microbe, parasite or virus in culture; assay type: cell-based; conditions: read-out: Inhibition zone diameter
[3] = system: Shigella spp.; test: microbe, parasite or virus in culture; assay type: cell-based; conditions: read-out: Minimum inhibitory concentration (MIC)
[4] = system: Staphylococcus aureus; test: microbe, parasite or virus in culture; assay type: cell-based; conditions: read-out: Minimum inhibitory concentration (MIC)
[5] = system: Shigella spp.; test: microbe, parasite or virus in culture; assay type: cell-based; conditions: 24 h, read-out: Inhibition zone diameter
[6] = system: Aspergillus niger; test: Agar well diffusion, inhibition zone diameter; assay type: cell-based; conditions: 48 h, read-out: Inhibition zone diameter
[7] = system: Escherichia coli; test: microbe, parasite or virus in culture; assay type: cell-based; conditions: read-out: Minimum inhibitory concentration (MIC)
[8] = system: Salmonella typhi; test: Agar well diffusion, inhibition zone diameter; assay type: cell-based; conditions: Salmonella enterica, 24 h, read-out: Inhibition zone diameter
[9] = Relative acid stability (spectrophotometric absorbance); assay type: physicochemical; conditions: 0.1 mg/mL solution, at λ-max
Method: as §1
The changes in absorbance with pH are a measure of the acid stability of the compounds.

[10] = system: Bacillus subtilis; test: microbe, parasite or virus in culture; assay type: cell-based; conditions: read-out: Minimum inhibitory concentration (MIC)
[11] = system: Aspergillus niger; test: microbe, parasite or virus in culture; assay type: cell-based; conditions: read-out: Minimum inhibitory concentration (MIC)
[12] = system: Pseudomonas aeruginosa; test: microbe, parasite or virus in culture; assay type: cell-based; conditions: read-out: Minimum inhibitory concentration (MIC)
[13] = system: Escherichia coli; test: microbe, parasite or virus in culture; assay type: cell-based; conditions: read-out: Inhibition zone diameter
[14] = system: Salmonella typhi; test: Minimum inhibitory concentration (dilutions, plot of IZD^2 against log concentration); assay type: cell-based; conditions: Salmonella enterica, read-out: Minimum inhibitory concentration (MIC)
[15] = system: Pseudomonas aeruginosa; test: microbe, parasite or virus in culture; assay type: cell-based; conditions: read-out: Inhibition zone diameter
[16] = Relative acid stability (spectrophotometric absorbance); assay type: physicochemical; conditions: 0.1 mg/mL solution, at λ-max; remark: listed apart in the source
[17] = system: Bacillus subtilis; test: microbe, parasite or virus in culture; assay type: cell-based; conditions: read-out: Inhibition zone diameter
[18] = Method: Saturated solution (10 mL) of each of the complexes and ligands at ambient temperature (28°C) was evaporated to dryness in an evaporating dish. The mass of the solid left in each case was determined. The solubilities were calculated using the relation: (1) S=mass/volume×1000. The solubilities of the complexes were compared with those of the ligands.
The solubilities were determined at 28°C.

Row | SMILES | Absorbance at 20°C [1] | Absorbance at 30°C [1] | Absorbance at 40°C [1] | Absorbance at 50°C [1] | Absorbance at 60°C [1] | Absorbance at 70°C [1] | Absorbance at 80°C [1] | MIC [3] [µg/mL] | zone of inhibition at 5000 µg/mL [5] [mm] | zone of inhibition at 5000 µg/mL [6] [mm] | zone of inhibition at 5000 µg/mL [8] [mm] | Absorbance at pH 1 [9] | Absorbance at pH 2 [9] | Absorbance at pH 3 [9] | Absorbance at pH 4 [9] | Absorbance at pH 5 [9] | Absorbance at pH 6 [9] | MIC [14] [µg/mL] | Absorbance at pH 7 [16] | other results
1 | CC1(C)S[C@@H]2[C@H](NC(=O)[C@H](N)c3ccc(O)cc3)C(=O)N2[C@H]1C(=O)O [Amoxicillin] | 0.661 | 0.664 | 0.643 | 0.428 | 0.369 | 0.312 | 0.126 | 11 (≈ 30.1 µM) | 30 | 35 | 35.5 | 0.387 | 0.404 | 0.499 | 0.511 | 0.603 | 0.620 | 11 (≈ 30.1 µM) | 0.664 | zone of inhibition at 5000 µg/mL ([2]; 24 h): 30 mm; MIC [4]: 12.5 µg/mL (≈ 34.2 µM); MIC [7]: 12.5 µg/mL (≈ 34.2 µM); MIC [10]: 12.5 µg/mL (≈ 34.2 µM); MIC [11]: 15 µg/mL (≈ 41 µM); MIC [12]: 14 µg/mL (≈ 38.3 µM); zone of inhibition at 5000 µg/mL ([13]; 24 h): 33 mm; zone of inhibition at 5000 µg/mL ([15]; 24 h): 28 mm; zone of inhibition at 5000 µg/mL ([17]; 24 h): 30 mm
2 | Cc1onc(-c2ccccc2Cl)c1C(=O)N[C@@H]1C(=O)N2[C@@H]1SC(C)(C)[C@@H]2C(=O)O [Cloxacillin] | 0.721 | 0.727 | 0.683 | 0.455 | 0.337 | 0.190 | 0.184 | 12.5 (≈ 28.7 µM) | 30 | 30 | 27 | 0.437 | 0.449 | 0.550 | 0.554 | 0.696 | 0.704 | 14.5 (≈ 33.3 µM) | 0.722 | zone of inhibition at 5000 µg/mL ([2]; S. aureus clinical isolate, 5 mg/mL, 32°C 24 hours): 31.5 mm; MIC ([4]; S. aureus clinical isolate): 12.5 µg/mL (≈ 28.7 µM); MIC ([7]; E. coli clinical isolate): 14.5 µg/mL (≈ 33.3 µM); Solubility [18]: Negligible; MIC ([10]; B. subtilis clinical isolate): 12.5 µg/mL (≈ 28.7 µM); MIC ([11]; A. niger clinical isolate): 14.5 µg/mL (≈ 33.3 µM); MIC ([12]; P. aeruginosa clinical isolate): 22 µg/mL (≈ 50.5 µM); zone of inhibition at 5000 µg/mL ([13]; E. coli clinical isolate, 5 mg/mL, 32°C 24 hours): 28 mm; zone of inhibition at 5000 µg/mL ([15]; P. aeruginosa clinical isolate, 5 mg/mL, 32°C 24 hours): 20 mm; zone of inhibition at 5000 µg/mL ([17]; B. subtilis clinical isolate, 5 mg/mL, 32°C 24 hours): 32 mm
